Experiments:
Test in all cases: relative viability (nuclei count vs DMSO), 5 days (fraction); higher = more cells survive
Bortezomib + Phenformin = compound: CC(C)C[C@H](NC(=O)[C@H](Cc1ccccc1)NC(=O)c1cnccn1)B(O)O [Bortezomib] + N=C(N)NC(=N)NCCc1ccccc1 [Phenformin] (partner 250 µM)
Summary of the method: (§1)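 One day after seeding in 1536-well plates, lung cancer cell lines were dosed by pin tool. Dosing was either single-drug or a fixed anchor-drug dose plus five library-drug doses (not always all listed) in √10 steps. After 5 days, nuclei were stained in one fix-and-stain step and counted on 4× images, and relative viability is the nuclei count of treated wells over that of vehicle wells, given as the median of duplicate plates.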

Bortezomib + Vorinostat = compound: CC(C)C[C@H](NC(=O)[C@H](Cc1ccccc1)NC(=O)c1cnccn1)B(O)O [Bortezomib] + O=C(CCCCCCC(=O)Nc1ccccc1)NO [Vorinostat] (partner 1 µM)
Summary of the method: as §1

Obatoclax + Phenformin = compound: COC1=CC(c2cc3ccccc3[nH]2)=N/C1=C\c1[nH]c(C)cc1C [Obatoclax] + N=C(N)NC(=N)NCCc1ccccc1 [Phenformin] (partner 250 µM)
Summary of the method: as §1

Bortezomib + Palbociclib = compound: CC(C)C[C@H](NC(=O)[C@H](Cc1ccccc1)NC(=O)c1cnccn1)B(O)O [Bortezomib] + CC(=O)c1c(C)c2cnc(Nc3ccc(N4CCNCC4)cn3)nc2n(C2CCCC2)c1=O [Palbociclib] (partner 0.5 µM)
Summary of the method: as §1

Q: For NCI-H650, which relative viability (Bortezomib + Phenformin; first compound 0.000632 µM) is on record?
A: Its relative viability is 0.431.

Q: And the relative viability (Bortezomib + Phenformin; first compound 0.002 µM)?
A: Its relative viability is 0.461.

Q: What about the relative viability (Bortezomib + Phenformin; first compound 0.006325 µM) of the same cell line?
A: Its relative viability is 0.38.

Q: What about the relative viability (Bortezomib + Phenformin; first compound 0.02 µM) of the same cell line?
A: The relative viability was 0.203.

Q: And the relative viability (Bortezomib + Vorinostat; first compound 0.0002 µM)?
A: The relative viability was 0.395.

Q: And the relative viability (Bortezomib + Vorinostat; first compound 0.000632 µM)?
A: Its relative viability is 0.566.

Q: And the relative viability (Bortezomib + Vorinostat; first compound 0.002 µM)?
A: Its relative viability is 0.452.

Q: What about the relative viability (Bortezomib + Vorinostat; first compound 0.006325 µM) of the same cell line?
A: Its relative viability is 0.429.

Q: And the relative viability (Bortezomib + Vorinostat; first compound 0.02 µM)?
A: Its relative viability is 0.121.

Q: What about the relative viability (Obatoclax + Phenformin; first compound 0.01 µM) of the same cell line?
A: The relative viability was 0.454.

Q: And the relative viability (Obatoclax + Phenformin; first compound 0.03162 µM)?
A: The relative viability was 0.395.

Q: What about the relative viability (Obatoclax + Phenformin; first compound 0.3162 µM) of the same cell line?
A: Its relative viability is 0.314.

Q: And the relative viability (Obatoclax + Phenformin; first compound 1 µM)?
A: The relative viability was 0.288.

Q: What about the relative viability (Bortezomib + Palbociclib; first compound 0.0002 µM) of the same cell line?
A: The relative viability was 0.335.

Q: And the relative viability (Bortezomib + Palbociclib; first compound 0.000632 µM)?
A: Its relative viability is 0.27.

Q: And the relative viability (Bortezomib + Palbociclib; first compound 0.002 µM)?
A: The relative viability was 0.31.

Q: And the relative viability (Bortezomib + Palbociclib; first compound 0.006325 µM)?
A: Its relative viability is 0.243.

Q: What about the relative viability (Bortezomib + Palbociclib; first compound 0.02 µM) of the same cell line?
A: Its relative viability is 0.149.
